Test results: PubChem BioAssay (NCI)
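Five compound concentrations were applied to cells in 96-well plates for 48 hours; endpoints were derived by simple linear interpolation of the resulting dose-response curve. The concentration for 50% growth inhibition is given as GI50. TGI marks complete inhibition of growth.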

What was measured:
Assay in all cases: inhibition of tumour cell growth, NCI panel, 48 h
MDA-MB-435 = tested on: MDA-MB-435
RXF 393 renal = tested on: RXF 393 renal
SF-539 CNS = tested on: SF-539 CNS
KM12 colon = tested on: KM12 colon
T-47D breast = tested on: T-47D breast
NCI-H226 lung = tested on: NCI-H226 lung
TK-10 renal = tested on: TK-10 renal
HCT-15 colon = tested on: HCT-15 colon
IGROV1 ovarian = tested on: IGROV1 ovarian
M14 melanoma = tested on: M14 melanoma
COLO 205 colon = tested on: COLO 205 colon
OVCAR-8 ovarian = tested on: OVCAR-8 ovarian
DU-145 prostate = tested on: DU-145 prostate
HT29 colon = tested on: HT29 colon
LOX IMVI melanoma = tested on: LOX IMVI melanoma
K-562 leukemia = tested on: K-562 leukemia
SF-295 CNS = tested on: SF-295 CNS
MALME-3M melanoma = tested on: MALME-3M melanoma
NCI-H460 lung = tested on: NCI-H460 lung
EKVX NSCLC = tested on: EKVX NSCLC
MDA-MB-231 breast = tested on: MDA-MB-231 breast
MCF7 breast = tested on: MCF7 breast
SR leukemia = tested on: SR leukemia
SK-MEL-5 melanoma = tested on: SK-MEL-5 melanoma
ACHN renal = tested on: ACHN renal
A498 renal = tested on: A498 renal
786-0 renal = tested on: 786-0 renal
HL-60(TB) leukemia = tested on: HL-60(TB) leukemia
A549 NSCLC = tested on: A549 NSCLC
SN12C renal = tested on: SN12C renal
SK-MEL-28 melanoma = tested on: SK-MEL-28 melanoma
UACC-62 melanoma = tested on: UACC-62 melanoma
SK-OV-3 ovarian = tested on: SK-OV-3 ovarian
OVCAR-3 ovarian = tested on: OVCAR-3 ovarian
HS 578T breast = tested on: HS 578T breast
MDA-MB-468 breast = tested on: MDA-MB-468 breast
HOP-62 NSCLC = tested on: HOP-62 NSCLC
PC-3 prostate = tested on: PC-3 prostate
MOLT-4 leukemia = tested on: MOLT-4 leukemia
CCRF-CEM leukemia = tested on: CCRF-CEM leukemia
SNB-19 CNS = tested on: SNB-19 CNS
OVCAR-5 ovarian = tested on: OVCAR-5 ovarian
NCI-H23 lung = tested on: NCI-H23 lung
OVCAR-4 ovarian = tested on: OVCAR-4 ovarian
SNB-75 CNS = tested on: SNB-75 CNS
NCI-H522 lung = tested on: NCI-H522 lung
SF-268 CNS = tested on: SF-268 CNS
BT-549 breast = tested on: BT-549 breast
RPMI-8226 leukemia = tested on: RPMI-8226 leukemia
U251 CNS = tested on: U251 CNS
SK-MEL-2 melanoma = tested on: SK-MEL-2 melanoma
HCC-2998 colon = tested on: HCC-2998 colon
HCT-116 colon = tested on: HCT-116 colon
UO-31 renal = tested on: UO-31 renal
UACC-257 melanoma = tested on: UACC-257 melanoma
HOP-92 NSCLC = tested on: HOP-92 NSCLC

CN(C)C(=O)c1cc(-c2ccc3ncnc(N4CCc5cc(F)c(Cl)cc54)c3c2)cnc1N
GI50 (MDA-MB-435): 0.187 µM
TGI (MDA-MB-435): 3.18 µM
GI50 (RXF 393 renal): 0.0379 µM
TGI (RXF 393 renal): 0.317 µM
GI50 (SF-539 CNS): 0.135 µM
TGI (SF-539 CNS): 0.7 µM
GI50 (KM12 colon): 0.243 µM
TGI (KM12 colon): 2.07 µM
GI50 (T-47D breast): 0.0323 µM
TGI (T-47D breast): 1.43 µM
GI50 (NCI-H226 lung): 0.131 µM
TGI (NCI-H226 lung): 3.37 µM
GI50 (TK-10 renal): 0.137 µM
TGI (TK-10 renal): 1.21 µM
GI50 (HCT-15 colon): 0.127 µM
TGI (HCT-15 colon): 1.42 µM
GI50 (IGROV1 ovarian): 0.0301 µM
TGI (IGROV1 ovarian): 0.161 µM
GI50 (M14 melanoma): 0.277 µM
GI50 (COLO 205 colon): 0.225 µM
TGI (COLO 205 colon): 0.54 µM
GI50 (OVCAR-8 ovarian): 0.216 µM
TGI (OVCAR-8 ovarian): 7.5 µM
GI50 (DU-145 prostate): 0.095 µM
TGI (DU-145 prostate): > 100 µM
GI50 (HT29 colon): 0.141 µM
TGI (HT29 colon): 1.58 µM
GI50 (LOX IMVI melanoma): 0.17 µM
TGI (LOX IMVI melanoma): 1.17 µM
GI50 (K-562 leukemia): 0.281 µM
TGI (K-562 leukemia): > 100 µM
GI50 (SF-295 CNS): 0.244 µM
TGI (SF-295 CNS): 1.25 µM
GI50 (MALME-3M melanoma): 0.0455 µM
TGI (MALME-3M melanoma): 0.366 µM
GI50 (NCI-H460 lung): 0.161 µM
TGI (NCI-H460 lung): > 37.3 µM
GI50 (EKVX NSCLC): 0.131 µM
TGI (EKVX NSCLC): 0.741 µM
GI50 (MDA-MB-231 breast): 0.203 µM
TGI (MDA-MB-231 breast): 1.52 µM
GI50 (MCF7 breast): 0.0322 µM
TGI (MCF7 breast): 1.31 µM
GI50 (SR leukemia): 0.0765 µM
TGI (SR leukemia): 0.815 µM
GI50 (SK-MEL-5 melanoma): 0.125 µM
TGI (SK-MEL-5 melanoma): 0.276 µM
GI50 (ACHN renal): 0.217 µM
TGI (ACHN renal): 3.22 µM
GI50 (A498 renal): 0.127 µM
TGI (A498 renal): 0.459 µM
GI50 (786-0 renal): 0.129 µM
TGI (786-0 renal): 1.43 µM
GI50 (HL-60(TB) leukemia): 0.0575 µM
TGI (HL-60(TB) leukemia): 0.682 µM
GI50 (A549 NSCLC): 0.113 µM
TGI (A549 NSCLC): 1.49 µM
GI50 (SN12C renal): 0.0698 µM
TGI (SN12C renal): 3.02 µM
GI50 (SK-MEL-28 melanoma): 0.195 µM
TGI (SK-MEL-28 melanoma): 5.18 µM
GI50 (UACC-62 melanoma): 0.109 µM
TGI (UACC-62 melanoma): 0.44 µM
GI50 (SK-OV-3 ovarian): 0.316 µM
TGI (SK-OV-3 ovarian): 1.75 µM
GI50 (OVCAR-3 ovarian): 0.128 µM
TGI (OVCAR-3 ovarian): 0.743 µM
GI50 (HS 578T breast): 0.0309 µM
TGI (HS 578T breast): 0.437 µM
GI50 (MDA-MB-468 breast): 0.043 µM
TGI (MDA-MB-468 breast): 0.178 µM
GI50 (HOP-62 NSCLC): 0.154 µM
TGI (HOP-62 NSCLC): 2.31 µM
GI50 (PC-3 prostate): 0.104 µM
TGI (PC-3 prostate): 7.19 µM
GI50 (MOLT-4 leukemia): 0.0638 µM
TGI (MOLT-4 leukemia): 3.95 µM
GI50 (CCRF-CEM leukemia): 0.137 µM
GI50 (SNB-19 CNS): 0.276 µM
TGI (SNB-19 CNS): 3.44 µM
GI50 (OVCAR-5 ovarian): 0.168 µM
TGI (OVCAR-5 ovarian): 2.45 µM
GI50 (NCI-H23 lung): 0.194 µM
TGI (NCI-H23 lung): 2.86 µM
GI50 (OVCAR-4 ovarian): 0.229 µM
TGI (OVCAR-4 ovarian): 11.3 µM
GI50 (SNB-75 CNS): 0.023 µM
TGI (SNB-75 CNS): 0.649 µM
GI50 (NCI-H522 lung): 0.214 µM
TGI (NCI-H522 lung): 1.51 µM
GI50 (SF-268 CNS): 0.149 µM
TGI (SF-268 CNS): 4.27 µM
GI50 (BT-549 breast): 0.0747 µM
TGI (BT-549 breast): 0.437 µM
GI50 (RPMI-8226 leukemia): 0.0572 µM
TGI (RPMI-8226 leukemia): 0.419 µM
GI50 (U251 CNS): 0.2 µM
TGI (U251 CNS): 2.24 µM
GI50 (SK-MEL-2 melanoma): 0.191 µM
TGI (SK-MEL-2 melanoma): 0.474 µM
GI50 (HCC-2998 colon): 0.165 µM
TGI (HCC-2998 colon): 1.03 µM
GI50 (HCT-116 colon): 0.111 µM
TGI (HCT-116 colon): 0.296 µM
GI50 (UO-31 renal): 0.0321 µM
TGI (UO-31 renal): 1.86 µM
GI50 (UACC-257 melanoma): 0.198 µM
TGI (UACC-257 melanoma): 3.92 µM
GI50 (HOP-92 NSCLC): 0.144 µM
TGI (HOP-92 NSCLC): 0.673 µM
